Reference: the NIST ThermoML archive (doi:10.1016/j.fluid.2014.07.011)
Numbers after ± are expanded uncertainties.

Assay: Boiling temperature at pressure P
Conditions: 101 kPa; Liquid; Ebulliometric method (Recirculating still)

Row | SMILES | Boiling temperature at pressure P [°C]
1 | O=Cc1ccco1 [2-furaldehyde] | 162 ± 1.6
2 | OC1CCCC1 [cyclopentanol] | 139.4 ± 1.6
3 | CCOC(C)=O [ethyl acetate] | 77.1 ± 1.6
4 | CC(=O)CC(C)C [4-methylpentan-2-one] | 117.4 ± 1.6
